Source: the supplement of paper PMC10307832

The cell lines below were run with COC1=CC=C(C=C1)COC2=C(C=C(C=C2)CC3=CN=C(N=C3N)N)OC [GW-2580] + Cc1cc(Nc2cc(N3CCN(C)CC3)nc(Sc3ccc(NC(=O)C4CC4)cc3)n2)n[nH]1 [Tozasertib] (partner 0.1 µM) (assay: relative viability (nuclei count vs DMSO), 5 days (fraction); higher = more cells survive). Details: first compound 2.53 µM.
Outline: (§1)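 One day after seeding in 1536-well plates, lung cancer cell lines were dosed by pin tool. Dosing was either single-drug or a fixed anchor-drug dose plus five library-drug doses (not always all listed) in √10 steps. After 5 days, nuclei were stained in one fix-and-stain step and counted on 4× images, and relative viability is the nuclei count of treated wells over that of vehicle wells, given as the median of duplicate plates.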

| Cell Line | relative viability |
| --- | --- |
| EKVX | 0.313 |
| LC-2-ad | 0.405 |
| NCI-H1944 | 0.253 |
| NCI-H1975 | 0.614 |
| RERF-LC-KJ | 0.508 |
| ABC-1 | 0.179 |
| NCI-H358 | 0.11 |
| NCI-H650 | 0.669 |
| PC-3 [JPC-3] | 0.891 |

Same assay, conditions: first compound 8 µM

| Cell Line | relative viability |
| --- | --- |
| EKVX | 0.321 |
| LC-2-ad | 0.475 |
| NCI-H1944 | 0.205 |
| NCI-H1975 | 0.654 |
| RERF-LC-KJ | 0.367 |
| ABC-1 | 0.193 |
| NCI-H358 | 0.104 |
| NCI-H650 | 0.589 |
| PC-3 [JPC-3] | 0.854 |

The cell lines below were run with COC1=CC=C(C=C1)COC2=C(C=C(C=C2)CC3=CN=C(N=C3N)N)OC [GW-2580] + O=C(CCCCCCC(=O)Nc1ccccc1)NO [Vorinostat] (partner 1 µM) in the same assay as above. Details: first compound 0.08 µM.
Outline: as §1

| Cell Line | relative viability |
| --- | --- |
| EKVX | 0.711 |
| LC-2-ad | 0.728 |
| NCI-H1944 | 0.551 |
| NCI-H1975 | 0.755 |
| RERF-LC-KJ | 0.663 |
| ABC-1 | 0.972 |
| NCI-H358 | 0.754 |
| NCI-H650 | 0.512 |
| PC-3 [JPC-3] | 0.917 |

Same assay, conditions: first compound 0.8 µM

| Cell Line | relative viability |
| --- | --- |
| EKVX | 0.951 |
| LC-2-ad | 0.751 |
| NCI-H1944 | 0.53 |
| NCI-H1975 | 0.75 |
| RERF-LC-KJ | 0.792 |
| ABC-1 | 1.17 |
| NCI-H358 | 0.816 |
| NCI-H650 | 0.502 |
| PC-3 [JPC-3] | 1.26 |

Same assay, conditions: first compound 2.53 µM

| Cell Line | relative viability |
| --- | --- |
| EKVX | 0.808 |
| LC-2-ad | 0.76 |
| NCI-H1944 | 0.513 |
| NCI-H1975 | 0.654 |
| RERF-LC-KJ | 0.629 |
| ABC-1 | 1.06 |
| NCI-H358 | 0.631 |
| NCI-H650 | 0.349 |
| PC-3 [JPC-3] | 0.572 |

Same assay, conditions: first compound 8 µM

| Cell Line | relative viability |
| --- | --- |
| EKVX | 0.679 |
| LC-2-ad | 0.712 |
| NCI-H1944 | 0.52 |
| NCI-H1975 | 0.647 |
| RERF-LC-KJ | 0.684 |
| ABC-1 | 0.98 |
| NCI-H358 | 0.984 |
| NCI-H650 | 0.416 |
| PC-3 [JPC-3] | 0.639 |

These cell lines were tested with COC1=CC=C(C=C1)COC2=C(C=C(C=C2)CC3=CN=C(N=C3N)N)OC [GW-2580] + CCNC(=O)c1noc(-c2cc(C(C)C)c(O)cc2O)c1-c1ccc(CN2CCOCC2)cc1 [Luminespib] (partner 0.01 µM) in the same assay as above. Details: first compound 0.08 µM.
Outline: as §1

| Cell Line | relative viability |
| --- | --- |
| EKVX | 0.93 |
| LC-2-ad | 1.03 |
| NCI-H1944 | 0.692 |
| NCI-H1975 | 0.186 |
| RERF-LC-KJ | 1.23 |
| ABC-1 | 0.637 |
| NCI-H358 | 0.34 |
| NCI-H650 | 0.872 |
| PC-3 [JPC-3] | 0.719 |

Same assay, conditions: first compound 0.8 µM

| Cell Line | relative viability |
| --- | --- |
| EKVX | 0.936 |
| LC-2-ad | 1.07 |
| NCI-H1944 | 0.767 |
| NCI-H1975 | 0.5 |
| RERF-LC-KJ | 1.56 |
| ABC-1 | 0.505 |
| NCI-H358 | 0.344 |
| NCI-H650 | 0.857 |
| PC-3 [JPC-3] | 0.774 |

Same assay, conditions: first compound 2.53 µM

| Cell Line | relative viability |
| --- | --- |
| EKVX | 0.863 |
| LC-2-ad | 1.12 |
| NCI-H1944 | 0.7 |
| NCI-H1975 | 0.162 |
| RERF-LC-KJ | 1.35 |
| ABC-1 | 0.391 |
| NCI-H358 | 0.364 |
| NCI-H650 | 0.676 |
| PC-3 [JPC-3] | 0.544 |

Same assay, conditions: first compound 8 µM

| Cell Line | relative viability |
| --- | --- |
| EKVX | 0.923 |
| LC-2-ad | 1.02 |
| NCI-H1944 | 0.628 |
| NCI-H1975 | 0.193 |
| RERF-LC-KJ | 1.14 |
| ABC-1 | 0.518 |
| NCI-H358 | 0.463 |
| NCI-H650 | 0.618 |
| PC-3 [JPC-3] | 0.705 |
